Experimental data as given in patent US20220251081A1, “HETEROBICYCLIC INHIBITORS OF MAT2A AND METHODS OF USE FOR TREATING CANCER” (priority 2019, published 2022).

What was measured:
[1] = system: HCT116 MTAP +/+; experiment: Inhibition of cellular proliferation, 4 days, Cell Titer Glo, HCT116 MTAP+/+; assay type: cell-based; conditions: Homo sapiens, HCT-116, 96 h, IC50 score, read-out: 4 Day Relative Growth Inhibition (MTAP +/+)
In short: (§1)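 Isogenic human colon carcinoma lines differing only in MTAP status, plated 24 h before dosing, then exposed for 4 days at 37 °C/5% CO2 to a 10-point 3-fold dilution series (0.2% DMSO final). Read-out is Cell Titer Glo ATP luminescence, blank-subtracted and normalised to in-plate DMSO control, plotted as % proliferation change versus log molar concentration.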

[2] = system: HCT116 MTAP-/-; experiment: Inhibition of cellular proliferation, 4 days, Cell Titer Glo, HCT116 MTAP-/-; assay type: cell-based; conditions: Homo sapiens, HCT-116, 96 h, IC50 score, read-out: 4 Day Relative Growth Inhibition (MTAP −/−)
In short: as §1

[3] = biological target: T1, MAT2A homodimer (Homo sapiens, UniProt P31153); experiment: Biochemical assay: inhibition of recombinant MAT2A homodimer (phosphate release, PiColorLock Gold); conditions: MAT2A IC50 score; read-out: Enzyme Inhibition
T1 construct: inferred from Ni sepharose purification and imidazole elution; made in house; host or cells: Sf9 insect cells, recombinant baculovirus (Bac to Bac, pFASTBAC1 vector)
T1 sequence (P31153 whole entry): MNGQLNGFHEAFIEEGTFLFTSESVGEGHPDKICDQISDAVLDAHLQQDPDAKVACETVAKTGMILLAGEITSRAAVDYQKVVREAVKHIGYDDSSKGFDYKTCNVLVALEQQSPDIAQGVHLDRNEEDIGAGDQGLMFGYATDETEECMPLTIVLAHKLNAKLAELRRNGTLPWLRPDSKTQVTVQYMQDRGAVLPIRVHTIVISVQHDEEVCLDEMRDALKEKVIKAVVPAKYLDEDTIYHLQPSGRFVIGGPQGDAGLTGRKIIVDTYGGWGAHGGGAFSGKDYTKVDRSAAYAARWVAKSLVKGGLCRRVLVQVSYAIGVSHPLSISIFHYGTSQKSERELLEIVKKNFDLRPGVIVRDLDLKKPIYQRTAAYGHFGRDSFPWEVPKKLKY
In short: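 Baculovirus/Sf9-expressed, Ni-purified MAT2A at 4 μg/mL in pH 8.0 Tris/KCl/MgCl2/EDTA/BSA buffer, preincubated with compound 60 min at 25 °C. Started with ATP and L-methionine substrate mix (500 μM and 40 μM, stock in mix), 60 min at 25 °C; released phosphate by PiColorLock Gold against a phosphate standard curve.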

[4] = system: SAM in HCT116 human colon carcinoma cell line with deleted MTAP gene; experiment: Cellular assay of target engagement (SAM): SAM level by LC-MS/MS after 72 hrs; assay type: cell-based; conditions: HCT-116, IC50 score, read-out: Cell 72 h SAM Inhibition (MTAP −/−)
In short: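 MTAP-deleted HCT116 cells were seeded, then exposed 24 h later to a 10-point 3-fold compound dilution series for 72 h at 37 °C/5% CO2. They were lysed in cold 80% methanol/acetic acid containing d3-SAM internal standard. SAM was quantified by LC-MS/MS (MRM, m/z 399.2→250.1).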

Row | IC50 [1] | IC50 [2] | IC50 [3] | IC50 [4] | Structure (SMILES)
1 | ≥ 1000 nM | < 100 nM | < 100 nM | < 100 nM | [2H]C([2H])([2H])Oc1ccc(-n2c(=O)c(-c3ccc4nn(C)cc4c3)nc3ccc(OCC(F)(F)F)nc32)cc1 [Example 326]
2 | ≥ 1000 nM | < 100 nM | < 100 nM | < 100 nM | COc1ccc(-n2c(=O)c(-c3ccc4nn(C)cc4c3)nc3ccc(OCC(F)(F)F)nc32)cc1 [Example 327]
3 | ≥ 1000 nM | < 100 nM | < 100 nM | < 100 nM | Cn1cc2cc(-c3nc4ccc(OCC(F)(F)F)nc4n(-c4ccc(OC(F)F)cc4)c3=O)ccc2n1 [Example 328]
4 | ≥ 1000 nM | < 100 nM | < 100 nM | < 100 nM | Cn1cc2cc(-c3nc4ccc(OCC(F)(F)F)nc4n(-c4ccc(C5CC5)cc4)c3=O)ccc2n1 [Example 329]
5 | ≥ 1000 nM | 100 to 1000 nM | < 100 nM | < 100 nM | Cc1ccc(-n2c(=O)c(-c3ccc4nn(C)cc4c3)nc3ccc(OCC(F)(F)F)nc32)cn1 [Example 333]
6 | ≥ 1000 nM | < 100 nM | < 100 nM | < 100 nM | COc1ccc(-n2c(=O)c(-c3ccc4nn(CCO)cc4c3)nc3ccc(OCC(F)(F)F)nc32)cc1 [Example 335, 2-(2-(2-hydroxyethyl)-2H-indazol-5-yl)-4-(4-methoxyphenyl)-6-(2,2,2-trifluoroethoxy)pyrido[2,3-b]pyrazin-3(4H)-one]
7 | ≥ 1000 nM | < 100 nM | < 100 nM | < 100 nM | COc1ccc(-n2c(=O)c(-c3ccc4nc(C)n(C)c4c3)nc3ccc(OCC(F)(F)F)nc32)cc1 [Example 340]
8 | ≥ 1000 nM | < 100 nM | < 100 nM | < 100 nM | COc1ccc(-n2c(=O)c(-c3ccc4nn(C)cc4c3)cc3ncc(OCC(F)(F)F)nc32)cc1 [Example 343, 5-(4-methoxyphenyl)-7-(2-methyl-2H-indazol-5-yl)-3-(2,2,2-trifluoroethoxy)pyrido[2,3-b]pyrazin-6(5H)-one]
9 | ≥ 1000 nM | < 100 nM | < 100 nM | < 100 nM | Cn1cc2cc(-c3nc4ccc(OCC(F)(F)F)nc4n(-c4ccc(Br)cc4)c3=O)ccc2n1 [Example 346, 4-(4-bromophenyl)-2-(2-methyl-2H-indazol-5-yl)-6-(2,2,2-trifluoroethoxy)pyrido[2,3-b]pyrazin-3(4H)-one]
10 | ≥ 1000 nM | 100 to 1000 nM | < 100 nM | < 100 nM | COc1ccc(-n2c(=O)c(-c3ccc4nn(CCN)cc4c3)nc3ccc(OCC(F)(F)F)nc32)cc1 [Example 347, 2-(2-(2-aminoethyl)-2H-indazol-5-yl)-4-(4-methoxyphenyl)-6-(2,2,2-trifluoroethoxy)pyrido[2,3-b]pyrazin-3(4H)-one]
11 | ≥ 1000 nM | < 100 nM | < 100 nM | < 100 nM | COc1ccc(-n2c(=O)c(-c3ccc4nc(N)n(C)c4c3)nc3ccc(OCC(F)(F)F)nc32)cc1 [Example 351, 2-(2-amino-1-methyl-1H-benzo[d]imidazol-6-yl)-4-(4-methoxyphenyl)-6-(2,2,2-trifluoroethoxy)pyrido[2,3-b]pyrazin-3(4H)-one]
12 | 100 to 1000 nM | < 100 nM | < 100 nM | < 100 nM | COc1ccc(-n2c(=O)c(-c3ccc4nn(C)cc4c3)nc3c(N)cc(OCC(F)(F)F)nc32)cc1 [Example 352, 8-amino-4-(4-methoxyphenyl)-2-(2-methyl-2H-indazol-5-yl)-6-(2,2,2-trifluoroethoxy)pyrido[2,3-b]pyrazin-3(4H)-one]

More lines, now with the values behind:

Row | Structure (SMILES) | IC50 [1] | IC50 [2] | IC50 [3] | IC50 [4]
13 | [2H]C([2H])([2H])Oc1ccc(-n2c(=O)c(-c3ccc4nn(C)cc4c3)nc3ccc(OCC(F)F)nc32)cc1 [Example 325] | ≥ 1000 nM | < 100 nM | < 100 nM | < 100 nM
14 | CCOc1ccc2nc(-c3ccc4nn(C)cc4c3)c(=O)n(-c3ccc(C4CC4)cc3)c2n1 [Example 330] | ≥ 1000 nM | < 100 nM | < 100 nM | < 100 nM
15 | [2H]C([2H])([2H])Oc1ccc(-n2c(=O)c(-c3ccc4nn(C)cc4c3)nc3ccc(OC(C)C)nc32)cc1 [Example 331] | ≥ 1000 nM | < 100 nM | < 100 nM | < 100 nM
16 | Cn1cc2cc(-c3nc4ccc(OCC(F)(F)F)nc4n(-c4ccc(C5CC5)nc4)c3=O)ccc2n1 [Example 332] | ≥ 1000 nM | < 100 nM | < 100 nM | < 100 nM
17 | CCNc1ccc2nc(-c3ccc4nn(C)cc4c3)c(=O)n(-c3ccc(OC(F)F)cc3)c2n1 [Example 338] | < 100 nM | < 100 nM | < 100 nM | < 100 nM
18 | CCNc1ccc2nc(-c3ccc4nn(C)cc4c3)c(=O)n(-c3ccc(OC)cc3)c2n1 [Example 341] | ≥ 1000 nM | < 100 nM | < 100 nM | < 100 nM
19 | [2H]C([2H])([2H])Oc1ccc(-n2c(=O)c(-c3ccc4nn(C)cc4c3)cc3ncc(OCC)nc32)cc1 [Example 342] | 100 to 1000 nM | < 100 nM | < 100 nM | < 100 nM
20 | [2H]C([2H])([2H])Oc1ccc(-n2c(=O)c(-c3ccc4nn(C)cc4c3)cc3ncc(OCC(F)F)nc32)cc1 [Example 344] | ≥ 1000 nM | < 100 nM | < 100 nM | < 100 nM
21 | [2H]C([2H])([2H])Oc1ccc(-n2c(=O)c(-c3ccc4nn(C)cc4c3)cc3ncc(OCC(F)(F)F)nc32)cc1 [Example 345] | ≥ 1000 nM | 100 to 1000 nM | < 100 nM | < 100 nM
22 | CNc1ccc(-n2c(=O)c(-c3ccc4nn(C)cc4c3)nc3ccc(OCC(F)(F)F)nc32)cn1 [Example 348, 2-(2-methyl-2H-indazol-5-yl)-4-(6-(methylamino)pyridin-3-yl)-6-(2,2,2-trifluoroethoxy)pyrido[2,3-b]pyrazin-3(4H)-one] | ≥ 1000 nM | < 100 nM | < 100 nM | < 100 nM
23 | COc1ccc(-n2c(=O)c(-c3ccc4nc(N)n(C)c4c3)cc3ccc(OCC(F)(F)F)nc32)cc1 [Example 353, 3-(2-amino-1-methyl-1H-benzo[d]imidazol-6-yl)-1-(4-methoxyphenyl)-7-(2,2,2-trifluoroethoxy)-1,8-naphthyridin-2(1H)-one] | ≥ 1000 nM | < 100 nM | < 100 nM | < 100 nM
